In ChEMBL document CHEMBL5465560, “Selectivity Literature for EUbOPEN Chemogenomic Library” (2024):
Changes are numbered by the printed parent chain.

Columns and labels:
Conditions in all cases: at 10 µM
[1] = test system: Receptor-type tyrosine-protein kinase FLT3 (Homo sapiens), P36888 [UNDEFINED MUTATION]; test: (§1) Selectivity interaction (KinomeScan (DiscoverX)) EUB0000092b FLT3
[2] = target: Receptor-type tyrosine-protein kinase FLT3 (Homo sapiens) (UniProt P36888); test: as §1
[3] = test system: T1, Receptor-type tyrosine-protein kinase FLT3 (Homo sapiens), P36888 [N841I]; test: as §1
T1 sequence (whole entry): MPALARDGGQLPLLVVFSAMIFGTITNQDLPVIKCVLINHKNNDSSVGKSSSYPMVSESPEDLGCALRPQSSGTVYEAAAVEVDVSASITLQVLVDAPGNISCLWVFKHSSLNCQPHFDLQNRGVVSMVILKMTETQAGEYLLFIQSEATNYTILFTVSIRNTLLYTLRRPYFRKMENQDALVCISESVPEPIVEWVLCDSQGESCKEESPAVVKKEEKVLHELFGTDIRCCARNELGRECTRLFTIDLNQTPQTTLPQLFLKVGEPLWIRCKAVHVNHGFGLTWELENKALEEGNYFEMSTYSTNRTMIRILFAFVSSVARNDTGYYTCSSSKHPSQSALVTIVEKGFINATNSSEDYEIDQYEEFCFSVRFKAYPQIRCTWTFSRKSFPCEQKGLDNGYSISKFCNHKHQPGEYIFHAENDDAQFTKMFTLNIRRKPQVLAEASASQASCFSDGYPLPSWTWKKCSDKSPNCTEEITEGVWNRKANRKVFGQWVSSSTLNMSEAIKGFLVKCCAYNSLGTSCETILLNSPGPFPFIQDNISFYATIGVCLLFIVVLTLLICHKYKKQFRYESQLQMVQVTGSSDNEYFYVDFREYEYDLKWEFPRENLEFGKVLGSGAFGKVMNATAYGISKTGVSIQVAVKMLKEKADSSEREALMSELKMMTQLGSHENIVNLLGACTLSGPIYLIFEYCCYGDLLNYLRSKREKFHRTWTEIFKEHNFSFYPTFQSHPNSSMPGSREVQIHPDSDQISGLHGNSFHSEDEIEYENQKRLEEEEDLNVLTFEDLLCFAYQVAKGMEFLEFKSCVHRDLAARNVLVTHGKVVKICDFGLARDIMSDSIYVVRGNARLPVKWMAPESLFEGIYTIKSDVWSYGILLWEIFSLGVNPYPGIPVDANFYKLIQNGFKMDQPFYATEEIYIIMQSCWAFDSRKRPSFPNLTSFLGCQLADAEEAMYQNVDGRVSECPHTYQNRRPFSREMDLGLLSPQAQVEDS

[4] = test system: T2, Receptor-type tyrosine-protein kinase FLT3 (Homo sapiens), P36888 [D835Y]; test: as §1
T2 sequence (whole entry): T1 sequence (whole entry) with D835Y, I841N

[5] = test system: T3, Receptor-type tyrosine-protein kinase FLT3 (Homo sapiens), P36888 [D835H]; test: as §1
T3 sequence (whole entry): T1 sequence (whole entry) with D835H, I841N

## CCC(=O)N1CCN(c2ccc(-n3c(=O)ccc4cnc5ccc(-c6cnc7ccccc7c6)cc5c43)cc2C(F)(F)F)CC1
[1]
  % of control: 29%
[2]
  % of control: 16%
[3]
  % of control: 8.8%
[4]
  % of control: 16%
[5]
  % of control: 18%
